Source: patent US20240368135A1 (VERTEX PHARMACEUTICALS INCORPORATED, priority 2021, published 2024)

Target: human NaV 1.8 (Homo sapiens, UniProt Q9Y5Y9)
Assay: E-VIPR assay detecting and measuring NaV inhibition properties
Type: cell-based
Details: HEK cells expressing truncated human NaV 1.8; no human serum; read-out: IC50 in the E-VIPR Assay
Method in brief: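 Membrane potential was followed by coumarin/oxonol FRET during electrical field stimulation of matrigel-seeded HEK cells carrying truncated human NaV1.8 plus KIR2.1. Dosing used 11 points, 3-fold steps, top 300 nM final, 0.625% DMSO, with or without 25% human serum.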

Chain of human NaV 1.8 (Q9Y5Y9 126-399 limits assumed): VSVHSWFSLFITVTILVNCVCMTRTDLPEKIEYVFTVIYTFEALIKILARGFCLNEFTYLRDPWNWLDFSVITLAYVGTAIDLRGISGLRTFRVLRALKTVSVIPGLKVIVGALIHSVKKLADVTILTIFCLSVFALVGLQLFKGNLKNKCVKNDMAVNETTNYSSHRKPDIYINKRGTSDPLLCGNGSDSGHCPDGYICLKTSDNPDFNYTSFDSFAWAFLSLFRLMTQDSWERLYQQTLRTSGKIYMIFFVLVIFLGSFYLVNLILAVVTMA
Chain of human NaV 1.8 (Q9Y5Y9 660-890 limits assumed): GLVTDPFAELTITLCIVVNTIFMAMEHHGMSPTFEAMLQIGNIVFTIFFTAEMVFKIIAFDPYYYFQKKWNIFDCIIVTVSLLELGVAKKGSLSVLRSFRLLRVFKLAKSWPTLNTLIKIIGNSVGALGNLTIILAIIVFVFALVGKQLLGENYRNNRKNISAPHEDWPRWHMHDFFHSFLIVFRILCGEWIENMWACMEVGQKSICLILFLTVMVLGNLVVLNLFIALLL
Chain of human NaV 1.8 (Q9Y5Y9 1148-1722 limits assumed): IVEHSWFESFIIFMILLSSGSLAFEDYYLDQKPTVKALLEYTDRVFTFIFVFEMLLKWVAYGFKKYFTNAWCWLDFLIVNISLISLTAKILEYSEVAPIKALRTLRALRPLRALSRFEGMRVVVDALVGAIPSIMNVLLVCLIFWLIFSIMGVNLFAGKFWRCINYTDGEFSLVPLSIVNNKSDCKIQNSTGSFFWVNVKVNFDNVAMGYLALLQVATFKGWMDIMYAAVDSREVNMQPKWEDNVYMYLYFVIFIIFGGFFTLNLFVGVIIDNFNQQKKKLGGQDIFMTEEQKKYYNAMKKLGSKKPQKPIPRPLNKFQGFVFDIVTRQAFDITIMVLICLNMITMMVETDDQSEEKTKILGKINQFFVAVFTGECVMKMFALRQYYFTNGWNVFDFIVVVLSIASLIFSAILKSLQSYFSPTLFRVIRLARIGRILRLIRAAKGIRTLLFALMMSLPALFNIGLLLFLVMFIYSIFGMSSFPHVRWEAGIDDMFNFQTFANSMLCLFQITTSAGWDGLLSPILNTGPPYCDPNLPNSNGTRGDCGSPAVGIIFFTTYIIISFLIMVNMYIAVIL

SMILES	IC50
Cc1nocc1NC(=O)[C@@H]1O[C@@](C)(C(F)(F)F)[C@@H](C)[C@H]1c1ccc(F)c(F)c1OCCN[C@@H]1CCOC1 [Compound 632, (2R,3S,4S,5R)-3-(3,4-difluoro-2-(2-(((R)-tetrahydrofuran-3-yl)amino)ethoxy)phenyl)-4,5-dimethyl-N-(3-methylisoxazol-4-yl)-5-(trifluoromethyl)tetrahydrofuran-2-carboxamide]	10 to 100 nM
Cc1nocc1NC(=O)[C@@H]1O[C@@](C)(C(F)(F)F)[C@@H](C)[C@H]1c1ccc(F)c(F)c1OCCN1CC2CC(C1)O2 [Compound 633, (2R,3S,4S,5R)-3-(2-(2-(6-oxa-3-azabicyclo[3.1.1]heptan-3-yl)ethoxy)-3,4-difluorophenyl)-4,5-dimethyl-N-(3-methylisoxazol-4-yl)-5-(trifluoromethyl)tetrahydrofuran-2-carboxamide]	10 to 100 nM
Cc1nocc1NC(=O)[C@@H]1O[C@@](C)(C(F)(F)F)[C@@H](C)[C@H]1c1ccc(F)c(F)c1OCCN1C[C@H]2COC[C@H]2C1 [Compound 634, (2R,3S,4S,5R)-3-(3,4-difluoro-2-(2-((3aR,6aS)-tetrahydro-1H-furo[3,4-c]pyrrol-5(3H)-yl)ethoxy)phenyl)-4,5-dimethyl-N-(3-methylisoxazol-4-yl)-5-(trifluoromethyl)tetrahydrofuran-2-carboxamide]	10 to 100 nM
C[C@H]1[C@@H](c2ccc(F)c(F)c2OCCN2CC(F)C2)[C@H](C(=O)Nc2ccc3nncn3c2)O[C@@]1(C)C(F)(F)F [Compound 635]	10 to 100 nM
C[C@H]1[C@@H](c2ccc(F)c(F)c2OCCN2CC3(COC3)C2)[C@H](C(=O)Nc2cccnc2)O[C@@]1(C)C(F)(F)F [Compound 636]	10 to 100 nM
CC(=O)N(C)c1cc(NC(=O)[C@@H]2O[C@@](C)(C(F)(F)F)[C@@H](C)[C@H]2c2ccc(F)c(F)c2OCCN2CC3(COC3)C2)ccn1 [Compound 637, (2R,3S,4S,5R)-N-[2-[acetyl(methyl)amino]-4-pyridyl]-3-[3,4-difluoro-2-[2-(2-oxa-6-azaspiro[3.3]heptan-6-yl)ethoxy]phenyl]-4,5-dimethyl-5-(trifluoromethyl)tetrahydrofuran-2-carboxamide]	10 to 100 nM
C[C@H]1[C@@H](c2ccc(F)c(F)c2O)[C@H](C(=O)Nc2ccnc(CO)c2)O[C@@]1(C)C(F)(F)F [Compound 638, (2R,3S,4S,5R)-3-(3,4-difluoro-2-hydroxyphenyl)-N-(2-(hydroxymethyl)pyridin-4-yl)-4,5-dimethyl-5-(trifluoromethyl)tetrahydrofuran-2-carboxamide]	10 to 100 nM
C[C@H]1[C@@H](c2ccc(F)c(F)c2OCCN=S(C)(C)=O)[C@H](C(=O)Nc2ccnc(CO)c2)O[C@@]1(C)C(F)(F)F [Compound 640, (2R,3S,4S,5R)-3-(2-(2-((dimethyl(oxo)-λ^6-sulfaneylidene)amino)ethoxy)-3,4-difluorophenyl)-N-(2-(hydroxymethyl)pyridin-4-yl)-4,5-dimethyl-5-(trifluoromethyl)tetrahydrofuran-2-carboxamide]	10 to 100 nM
C[C@H]1[C@@H](c2ccc(F)c(F)c2OCC2CC(F)(F)C2)[C@H](C(=O)Nc2ccnc(CO)c2)O[C@@]1(C)C(F)(F)F [Compound 644, (2R,3S,4S,5R)-3-(2-((3,3-difluorocyclobutyl)methoxy)-3,4-difluorophenyl)-N-(2-(hydroxymethyl)pyridin-4-yl)-4,5-dimethyl-5-(trifluoromethyl)tetrahydrofuran-2-carboxamide]	10 to 100 nM
C[C@H]1[C@@H](c2ccc(F)c(F)c2OCC2(F)COC2)[C@H](C(=O)Nc2ccnc(CO)c2)O[C@@]1(C)C(F)(F)F [Compound 645, (2R,3S,4S,5R)-3-(3,4-difluoro-2-((3-fluorooxetan-3-yl)methoxy)phenyl)-N-(2-(hydroxymethyl)pyridin-4-yl)-4,5-dimethyl-5-(trifluoromethyl)tetrahydrofuran-2-carboxamide]	10 to 100 nM
C[C@H]1[C@@H](c2ccc(F)c(F)c2O)[C@H](C(=O)Nc2ccc(C(N)=O)nc2)O[C@@]1(C)C(F)(F)F [Compound 649, 5-[[(2R,3S,4S,5R)-3-(3,4-difluoro-2-hydroxy-phenyl)-4,5-dimethyl-5-(trifluoromethyl)tetrahydrofuran-2-carbonyl]amino]pyridine-2-carboxamide]	100 to 1000 nM
Cc1cn(C)c(COc2c([C@H]3[C@H](C(=O)Nc4cccnc4)O[C@@](C)(C(F)(F)F)[C@H]3C)ccc(F)c2F)n1 [Compound 650, (2R,3S,4S,5R)-3-(2-((1,4-dimethyl-1H-imidazol-2-yl)methoxy)-3,4-difluorophenyl)-4,5-dimethyl-N-(pyridin-3-yl)-5-(trifluoromethyl)tetrahydrofuran-2-carboxamide]	10 to 100 nM
C[C@@H]1CN(C)CC(=O)N1c1cc(NC(=O)[C@@H]2O[C@@](C)(C(F)(F)F)[C@@H](C)[C@H]2c2ccc(F)c(F)c2OCCO)ccn1 [Compound 653, (2R,3S,4S,5R)-3-(3,4-difluoro-2-(2-hydroxyethoxy)phenyl)-N-(2-((R)-2,4-dimethyl-6-oxopiperazin-1-yl)pyridin-4-yl)-4,5-dimethyl-5-(trifluoromethyl)tetrahydrofuran-2-carboxamide]	10 to 100 nM

Second part, the compound after the results:

IC50	SMILES
10 to 100 nM	Cc1nocc1NC(=O)[C@@H]1O[C@@](C)(C(F)(F)F)[C@@H](C)[C@H]1c1ccc(F)c(F)c1OCCN1CC(C)(F)C1 [Compound 630, (2R,3S,4S,5R)-3-(3,4-difluoro-2-(2-(3-fluoro-3-methylazetidin-1-yl)ethoxy)phenyl)-4,5-dimethyl-N-(3-methylisoxazol-4-yl)-5-(trifluoromethyl)tetrahydrofuran-2-carboxamide]
10 to 100 nM	Cc1nocc1NC(=O)[C@@H]1O[C@@](C)(C(F)(F)F)[C@@H](C)[C@H]1c1ccc(F)c(F)c1OCCNC1COC1 [Compound 631, (2R,3S,4S,5R)-3-(3,4-difluoro-2-(2-(oxetan-3-ylamino)ethoxy)phenyl)-4,5-dimethyl-N-(3-methylisoxazol-4-yl)-5-(trifluoromethyl)tetrahydrofuran-2-carboxamide]
< 10 nM	COCCOc1c([C@H]2[C@H](C(=O)Nc3ccnc(CO)c3)O[C@@](C)(C(F)(F)F)[C@H]2C)ccc(F)c1F [Compound 639, (2R,3S,4S,5R)-3-(3,4-difluoro-2-(2-methoxyethoxy)phenyl)-N-(2-(hydroxymethyl)pyridin-4-yl)-4,5-dimethyl-5-(trifluoromethyl)tetrahydrofuran-2-carboxamide]
< 10 nM	C[C@H]1[C@@H](c2ccc(F)c(F)c2OCCOC(F)F)[C@H](C(=O)Nc2ccnc(CO)c2)O[C@@]1(C)C(F)(F)F [Compound 641, (2R,3S,4S,5R)-3-(2-(2-(difluoromethoxy)ethoxy)-3,4-difluorophenyl)-N-(2-(hydroxymethyl)pyridin-4-yl)-4,5-dimethyl-5-(trifluoromethyl)tetrahydrofuran-2-carboxamide]
< 10 nM	COCCCOc1c([C@H]2[C@H](C(=O)Nc3ccnc(CO)c3)O[C@@](C)(C(F)(F)F)[C@H]2C)ccc(F)c1F [Compound 642, (2R,3S,4S,5R)-3-(3,4-difluoro-2-(3-methoxypropoxy)phenyl)-N-(2-(hydroxymethyl)pyridin-4-yl)-4,5-dimethyl-5-(trifluoromethyl)tetrahydrofuran-2-carboxamide]
< 10 nM	C[C@H]1[C@@H](c2ccc(F)c(F)c2OCC(C)(F)F)[C@H](C(=O)Nc2ccnc(CO)c2)O[C@@]1(C)C(F)(F)F [Compound 643, (2R,3S,4S,5R)-3-(2-(2,2-difluoropropoxy)-3,4-difluorophenyl)-N-(2-(hydroxymethyl)pyridin-4-yl)-4,5-dimethyl-5-(trifluoromethyl)tetrahydrofuran-2-carboxamide]
< 10 nM	COC[C@@H](C)Oc1c([C@H]2[C@H](C(=O)Nc3ccnc(CO)c3)O[C@@](C)(C(F)(F)F)[C@H]2C)ccc(F)c1F [Compound 646, (2R,3S,4S,5R)-3-(3,4-difluoro-2-(((R)-1-methoxypropan-2-yl)oxy)phenyl)-N-(2-(hydroxymethyl)pyridin-4-yl)-4,5-dimethyl-5-(trifluoromethyl)tetrahydrofuran-2-carboxamide]
< 10 nM	COCCOc1c([C@H]2[C@H](C(=O)Nc3ccnc(C(O)CO)c3)O[C@@](C)(C(F)(F)F)[C@H]2C)ccc(F)c1F (stereo partly drawn) [Compound 647, (2R,3S,4S,5R)-3-[3,4-difluoro-2-(2-methoxyethoxy)phenyl]-N-[2-(1,2-dihydroxyethyl)-4-pyridyl]-4,5-dimethyl-5-(trifluoromethyl)tetrahydrofuran-2-carboxamide]
< 10 nM	COCCOc1c([C@H]2[C@H](C(=O)Nc3ccnc(CCO)c3)O[C@@](C)(C(F)(F)F)[C@H]2C)ccc(F)c1F [Compound 648, (2R,3S,4S,5R)-3-[3,4-difluoro-2-(2-methoxyethoxy)phenyl]-N-[2-(2-hydroxyethyl)-4-pyridyl]-4,5-dimethyl-5-(trifluoromethyl)tetrahydrofuran-2-carboxamide]
< 10 nM	Cc1cnc(COc2c([C@H]3[C@H](C(=O)Nc4cccnc4)O[C@@](C)(C(F)(F)F)[C@H]3C)ccc(F)c2F)n1C [Compound 651, (2R,3S,4S,5R)-3-(2-((1,5-dimethyl-1H-imidazol-2-yl)methoxy)-3,4-difluorophenyl)-4,5-dimethyl-N-(pyridin-3-yl)-5-(trifluoromethyl)tetrahydrofuran-2-carboxamide]
< 10 nM	COCCOc1c([C@H]2[C@H](C(=O)Nc3ccnc(N4C(=O)CN(C)C[C@H]4C)c3)O[C@@](C)(C(F)(F)F)[C@H]2C)ccc(F)c1F [Compound 652, (2R,3S,4S,5R)-3-[3,4-difluoro-2-(2-methoxyethoxy)phenyl]-N-[2-[(2R)-2,4-dimethyl-6-oxo-piperazin-1-yl]-4-pyridyl]-4,5-dimethyl-5-(trifluoromethyl)tetrahydrofuran-2-carboxamide]
